Laboratory results from patent US20260176289A1, “SMALL MOLECULE INHIBITORS OF KRAS PROTEINS” (Merck Sharp & Dohme LLC, priority 2022, published 2026).
Like-named read-outs stand apart in the source and are kept apart here.

Key:
KRAS-WT = KRAS-WT (Homo sapiens, UniProt P01116); test: SOS-catalyzed nucleotide exchange assay (Procedure A, TR-FRET), KRAS-WT; format: biochemical
Description: (§1) Procedure for SOS-Catalyzed Nucleotide Exchange Assay for KRAS-WT, G12C/D/V, G13D, HRAS, and NRAS (Procedure A)
(§2) Recombinant KRAS-G12C protein used in this assay has an additional triple mutation (C51S/C80L/C118S). Whereas KRAS-WT, G12D/V, G13D, HRAS and NRAS are in context of their WT protein sequence background. Specifically, the SOS-catalyzed nucleotide exchange assay utilizes a preformed TR-FRET complex containing a specific biotinylated RAS protein (KRAS-WT, G12C/V/D, G13D, HRAS, NRAS; described above) with Bodipy-GDP, and Terbium-streptavidin. Compounds are preincubated with this complex for 60 minutes. Subsequently, recombinant human SOS protein and unlabeled GTP are added to initiate the exchange reaction. Small molecule inhibitors stabilize the Bodipy-GDP complex whereas the untreated protein rapidly exchanges Bodipy-GDP for unlabeled GTP resulting in reduced TR-FRET signal.
(§3) To assemble the preformed TR-FRET complexes, each biotinylated RAS protein is diluted to 2 μM in an EDTA Buffer (20 mM HEPES pH 7.5, 50 mM sodium chloride, 10 mM EDTA, and 0.01% Tween) and incubated at room temperature for one hour. This mixture is then further diluted to 90 nM in an Assay Buffer (20 mM HEPES pH 7.5, 150 mM sodium chloride, 10 mM magnesium chloride, and 0.005% Tween) containing 15 nM of Terbium-Streptavidin (Invitrogen, catalog #PV3577) and 900 nM of Bodipy-GDP (Invitrogen, catalog #G22360) and incubated at room temperature for six hours. It should be noted that this preformed TR-FRET complex for each of the RAS protein were made ahead of time, aliquoted and stored at −80° C. until the day of the experiment.
(§4) Each test compound (10 mM stock in DMSO) is diluted in DMSO to make a final-10-point, 3-fold dilution and is acoustically dispensed into a 384-well assay plate (Corning, catalog #3820) using an Echo 550 (Labcyte). Each well of the assay plate receives 3 μL of a specific 3×RAS preformed TR-FRET complex and 3 μL of Assay Buffer and is incubated at room temperature for 60 minutes (preincubation time). Each well then receives 3 μL of 3×recombinant human SOS protein and GTP (Sigma, G8877) in Assay Buffer and is incubated at room temperature for 30 minutes (G13D), 60 minutes (KRAS WT/G12C/D, H/NRAS) or 90 minutes for G12V. The final reaction in each well of 9 μL consists of 3 mM GTP, specific Ras and SOS proteins in the following concentrations: KRAS-G12C/SOS=3 nM/40 nM, KRAS-WT and G12D/SOS=1 nM/40 nM, KRAS-G12V/SOS=1.25 nM/160 nM. KRAS-G13D/SOS=1.25 nM/0 nM, HRAS and NRAS=1.25 nM/40 nM.
(§5) The time-resolved fluorescence resonance energy transfer (TR-FRET) signal is measured on an Envision (PerkinElmer) plate reader: Excitation filter=340 nm; emission 1=495 nm; emission2=520 nm; dichroic mirror=D400/D505; delay time=[…]. The signal of each well is determined as the ratio of the emission at 520 nm to that at 495 nm. Percent effect of each well is determined after normalization to control wells containing DMSO (no effect) or a saturating concentration of inhibitor (max effect). The apparent effect as a function of compound concentration is fit to a four-parameter logistic equation.

KRAS-G12D = KRAS-G12D (Homo sapiens, UniProt P01116, G12D); test: SOS-catalyzed nucleotide exchange assay (Procedure A, TR-FRET), KRAS-G12D; format: biochemical
Description: as §1, §2, §3, §4, §5

KRAS-G12V = KRAS-G12V (Homo sapiens, UniProt P01116, G12V); test: SOS-catalyzed nucleotide exchange assay (Procedure A, TR-FRET), KRAS-G12V; format: biochemical
Description: as §1, §2, §3, §4, §5

AsPC-1 cells = test: Cellular phospho-ERK assay, AsPC-1 cells (homozygous KRAS-G12D); format: cell-based; settings: Homo sapiens, read-out: AsPC1 pERK IC50
Description: Procedure for Cellular Phospho-ERK Assay in KRAS Wild Type and Mutant (G12D, G12V) Cell Lines
MKN-1 cells (JCRB JCRB0252) containing amplified wild-type KRAS, were cultured in growth medium that contains RPMI 1640-GlutaMAX™-I (ThermoFisher Scientific 61870) containing 10% heat inactivated fetal bovine serum (ThermoFisher Scientific 10091148), 1 mM sodium pyruvate and 10 mM HEPES. PANC08.13 cells (ATCC® CRL-2551™), containing homozygous KRAS-G12D activating mutation, were cultured in growth medium made of RPMI1640-GlutaMAX™-I (ThermoFisher Scientific 61870) containing 15% heat inactivated fetal bovine serum (ThermoFisher Scientific 10091148)). AsPC-1 cells (ATCC® CRL-1682™), containing homozygous KRAS-G12D activating mutation, were cultured in T150 flask in growth medium (RPMI medium 1640-GlutaMAX™-I (ThermoFisher Scientific 61870) containing 10% fetal bovine serum (ThermoFisher Scientific 10091148)). SW620 cells (ATCC® […]), containing homozygous KRAS-G12V activating mutation, were cultured in growth medium that contains RPMI 1640-GlutaMAX™-I (ThermoFisher Scientific 61870) containing 10% heat inactivated fetal bovine serum (ThermoFisher Scientific 10091148).
Cells for the assay were harvested in growth medium after TrypLE (ThermoFisher scientific 12604021) digestion and were seeded in a 384-well collagen coated cell culture plate (Corning 356702) at a density of 10,000-15,000 cells/20 μL/well, and incubated at 37° C., 5% CO2 overnight. The compound (with 10 mM stock concentration) dose-response titrations were prepared [30 μM final ERK detection assay concentration and 1:3 dilutions, 10-point dose response] and appropriate amounts (270 nL) of test compounds were dispensed in a 384-well intermediate plate using an Echo 550 liquid handler. 30 μL/well of RPMI medium 1640-GlutaMAX™—I was added to the intermediate plate and the contents of the intermediate plate (10 μL/well) were then transferred to the 384-well collagen coated cell culture plate, which was incubated at 37° C., 5% CO2 for 2 hours. After removal of medium from the collagen coated cell culture plate, cells were lysed in lysis buffer from Alpha SureFire® Ultra™ Multiplex p-ERK and total ERK assay kit (PerkinElmer MPSU-PTERK) containing Halt™ Protease and Phosphatase inhibitor cocktail (ThermoFisher Scientific 78446) at room temperature with constant shaking at 300 rpm for 30 minutes. The cell lysates were then transferred to an OptiPlate-384 plate (PerkinElmer 6005620), and the phosphorylation of ERK (p-ERK) and total ERK levels were detected by Alpha SureFire® Ultra™ Multiplex p-EEK kit and total ERK assay kit (PerkinElmer MPSU-PTERK) following the manufacturer's protocol. Assay plates were read on a En Vision Multimode Plate Reader (PerkinElmer), and the ratio of p-ERK vs. total ERK in each well was used as the final readout. Dose response curves were analyzed using a 4-parameter logistic model to calculate IC50 values using Spotfire software.

[1] = nucleotide exchange, read-out: KRAS WT GNE IC50
[2] = nucleotide exchange, read-out: KRAS G12D GNE IC50
[3] = nucleotide exchange, read-out: KRAS G12V GNE IC50
[4] = ASPC1, 2 h, 2 hours compound incubation

KRAS-WT, sequence (P01116 with tags, fused parts or gaps isoform P01116-2): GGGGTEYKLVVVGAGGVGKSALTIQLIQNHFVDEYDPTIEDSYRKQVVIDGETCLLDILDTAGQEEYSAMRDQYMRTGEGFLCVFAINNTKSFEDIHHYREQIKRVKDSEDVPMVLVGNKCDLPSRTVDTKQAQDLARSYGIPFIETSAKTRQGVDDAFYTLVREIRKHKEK
KRAS-G12D, sequence (P01116 with tags, fused parts or gaps isoform P01116-2 G12D): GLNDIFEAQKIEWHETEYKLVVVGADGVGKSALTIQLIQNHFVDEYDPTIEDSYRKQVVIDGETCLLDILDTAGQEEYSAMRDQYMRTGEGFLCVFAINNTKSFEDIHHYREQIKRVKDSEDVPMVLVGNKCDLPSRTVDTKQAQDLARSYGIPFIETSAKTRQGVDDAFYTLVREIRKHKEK
KRAS-G12V, sequence (P01116 with tags, fused parts or gaps isoform P01116-2 G12V): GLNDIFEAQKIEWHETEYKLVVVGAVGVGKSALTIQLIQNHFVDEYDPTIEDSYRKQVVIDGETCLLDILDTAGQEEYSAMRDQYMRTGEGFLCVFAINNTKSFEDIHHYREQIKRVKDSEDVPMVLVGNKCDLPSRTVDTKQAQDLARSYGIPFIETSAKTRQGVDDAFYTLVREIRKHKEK

Row | SMILES | IC50 (KRAS-WT; [1]) [nM] | IC50 (KRAS-G12D; [2]) [nM] | IC50 (KRAS-G12V; [3]) [nM] | IC50 (AsPC-1 cells; [4]) [nM] | IC50 (AsPC-1 cells; ASPC1, 2 h, KRAS-G12D, 2 hours) [nM] | IC50 (KRAS-WT; KRAS WT GNE IC50, nucleotide exchange) [nM] | IC50 (KRAS-G12D; KRAS G12D GNE IC50, nucleotide exchange) [nM] | IC50 (KRAS-G12V; KRAS G12V GNE IC50, nucleotide exchange) [nM] | IC50 (AsPC-1 cells; ASPC1, 2 hours compound incubation) [nM]
1 | COCC12CC(CN1C[C@@]1(COc3nc(N4CCOC[C@@](C)(O)C4)c4c(n3)sc3c(-c5c(C6(F)CC6)c(Cl)cc6[nH]ncc56)nccc34)CC1(F)F)C2 [Ex-258, (6S)-4-(8-(6-chloro-5-(1-fluorocyclopropyl)-1H-indazol-4-yl)-2-(((R)-2,2-difluoro-1-((1-(methoxymethyl)-2-azabicyclo[2.1.1]hexan-2-yl)methyl)cyclopropyl)metho-xy)pyrido[4′,3′:4,5]thieno[2,3-d]pyrimidin-4-yl)-6-methyl-1,4-oxazepan-6-ol] | 38.8 | 7 | 25.2 | 124 | – | – | – | – | –
2 | Cc1cc2[nH]ncc2c(-c2nncc3c2sc2nc(OC[C@@]45CCCN4C[C@H](F)C5)nc(N4CCOC[C@@](C)(O)C4)c23)c1-c1ccco1 [Ex-281, (6S)-4-(2-(((2R,7aS)-2-fluorotetrahydro-1H-pyrrolizin-7a(5H)-yl)methoxy)-8-(5-(furan-2-yl)-6-methyl-1H-indazol-4-yl)pyrimido[5′,4′:4,5]thie-no[2,3-d]pyridazin-4-yl)-6-methyl-1,4-oxazepan-6-ol] | 31.2 | 8.24 | 11.7 | – | 356 | – | – | – | –
3 | C[C@@]1(O)COCCN(c2nc(OC[C@@]34CCCN3C[C@H](F)C4)nc3sc4c(-c5c(-c6cc[nH]c6)c(Cl)cc6[nH]ncc56)nccc4c23)C1 [Ex-73, (6S)-4-(8-(6-chloro-5-(1H-pyrrol-3-yl)-1H-indazol-4-yl)-2-(((2R,7aS)-2-fluorotetrahydro-1H-pyrrolizin-7a(5H)-yl)methoxy)pyrido[4′,3′:4,5]thi-eno[2,3-d]pyrimidin-4-yl)-6-methyl-1,4-oxazepan-6-ol] | 60.4 | 9.67 | 52.2 | – | 1060 | – | – | – | –
4 | C[C@@]1(O)COCCN(c2nc(OC[C@]3(CN4CC5(CCO5)C4)CC3(F)F)nc3sc4c(-c5c(C6(F)CC6)c(Cl)cc6[nH]ncc56)nccc4c23)C1 [Ex-265, (6S)-4-(2-(((R)-1-((1-oxa-6-azaspiro[3.3]heptan-6-yl)methyl)-2,2-difluorocyclopropyl)methoxy)-8-(6-chloro-5-(1-fluorocyclopropyl)-1H-indazol-4-yl)pyrido[4′,3′:4,5]thieno[2,3-d]pyrimidin-4-yl)-6-methyl-1,4-oxazepan-6-ol] | 24.5 | 4.21 | 14.9 | 200 | – | – | – | – | –
5 | C[C@@]1(O)COCCN(c2nc(OC[C@]3(CN4CC5(CCC5)C4)CC3(F)F)nc3sc4c(-c5c(C6(F)CC6)c(Cl)cc6[nH]ncc56)nccc4c23)C1 [Ex-256, (6S)-4-(2-(((R)-1-((2-azaspiro[3.3]heptan-2-yl)methyl)-2,2-difluorocyclopropyl)methoxy)-8-(6-chloro-5-(1-fluorocyclopropyl)-1H-indazol-4-yl)pyrido[4′,3′:4,5]thieno[2,3-d]pyrimidin-4-yl)-6-methyl-1,4-oxazepam-6-ol] | – | – | – | – | – | 16.5 | 4.41 | 11.1 | 126
6 | COCc1cc2[nH]ncc2c(-c2nccc3c2sc2nc(OC[C@@]45CCCN4C[C@H](F)C5)nc(N4CCOC[C@@](C)(O)C4)c23)c1C1CC1 [Ex-50, (6S)-4-(8-(5-cyclopropyl-6-(methoxymethyl)-1H-indazol-4-yl)-2-(((2R,7aS)-2-fluorotetrahydro-1H-pyrrolizin-7a(5H)-yl)methoxy)pyrido[4′,3′:4,5]thi-eno[2,3-d]pyrimidin-4-yl)-6-methyl-1,4-oxazepan-6-ol] | 326 | 243 | 291 | – | 3960 | – | – | – | –
7 | C[C@@]1(O)COCCN(c2nc(OC[C@]3(CN4CCOC5(CC5)C4)CC3(F)F)nc3sc4c(-c5c(C6(F)CC6)c(Cl)cc6[nH]ncc56)nccc4c23)C1 [Ex-264, (6S)-4-(2-(((R)-1-((4-oxa-7-azaspiro[2.5]octan-7-yl)methyl)-2,2-difluorocyclopropyl)methoxy)-8-(6-chloro-5-(1-fluorocyclopropyl)-1H-indazol-4-yl)pyrido[4′,3′:4,5]thieno[2,3-d]pyrimidin-4-yl)-6-methyl-1,4-oxazepan-6-ol] | 351 | 63.9 | 215 | 618 | – | – | – | – | –
8 | C[C@@]1(O)COCCN(c2nc(OC[C@@]34CCCN3C[C@H](F)C4)nc3sc4c(-c5c(C(F)(F)F)c(C(F)F)cc6[nH]ncc56)nccc4c23)C1 [Ex-155, (6S)-4-(8-(6-(difluoromethyl)-5-(trifluoromethyl)-1H-indazol-4-yl)-2-(((2R,7aS)-2-fluorotetrahydro-1H-pyrrolizin-7a(5H)-yl)methoxy)pyrido[4′,3′:4,5]thieno[2,3-d]pyrimidin-4-yl)-6-methyl-1,4-oxazepan-6-ol] | 350 | 158 | 211 | 927 | – | – | – | – | –
